What all share (format): functional
Test [1] has as its system Mycobacterium. Put plainly: Antibacterial activity against Mycobacterium luteum B-917 at 0.1% after 24 hrs by agar disk diffusion technique. Background: Agar diffusion results depend on both activity and mobility in agar.
Test [2] relates to Staphylococcus aureus. Put plainly: Antibacterial activity against Staphylococcus aureus 209-P at 0.5% after 24 hrs by agar disk diffusion technique.
The subject of test [3] is Aspergillus niger. Put plainly: Antifungal activity against Aspergillus niger F-1119 after 24 to 72 hrs by serial dilution technique.
In test [4] the test system is Yamadazyma tenuis. Put plainly: Antifungal activity against Candida tenuis VKM Y-70 after 24 to 72 hrs by serial dilution technique.
Test [5] has as its system Escherichia coli. Put plainly: Antibacterial activity against Escherichia coli B-906 at 0.1% after 24 hrs by agar disk diffusion technique.
For test [6], the system named is Yamadazyma tenuis. Put plainly: Antifungal activity against Candida tenuis VKM Y-70 at 0.1% after 48 to 72 hrs by agar disk diffusion technique.
In test [7] the test system is Escherichia coli. Put plainly: Antibacterial activity against Escherichia coli B-906 after 24 to 72 hrs by serial dilution technique.
Test [8] concerns Yamadazyma tenuis. Put plainly: Antifungal activity against Candida tenuis VKM Y-70 at 0.5% after 48 to 72 hrs by agar disk diffusion technique.
Test [9] has as its system Staphylococcus aureus. Put plainly: Antibacterial activity against Staphylococcus aureus 209-P at 0.1% after 24 hrs by agar disk diffusion technique.
Test [10] has as its system Mycobacterium. Put plainly: Antibacterial activity against Mycobacterium luteum B-917 at 0.5% after 24 hrs by agar disk diffusion technique.
The test system of test [11] is Staphylococcus aureus. Put plainly: Antibacterial activity against Staphylococcus aureus 209-P after 24 to 72 hrs by serial dilution technique.
Test [12] relates to Mycobacterium. Put plainly: Antibacterial activity against Mycobacterium luteum B-917 after 24 to 72 hrs by serial dilution technique.
Test [13] concerns Aspergillus niger. Put plainly: Antifungal activity against Aspergillus niger F-1119 at 0.5% after 48 to 72 hrs by agar disk diffusion technique.
Test [14] relates to Escherichia coli. Put plainly: Antibacterial activity against Escherichia coli B-906 at 0.5% after 24 hrs by agar disk diffusion technique.
Test [15] concerns Aspergillus niger. Put plainly: Antifungal activity against Aspergillus niger F-1119 at 0.1% after 48 to 72 hrs by agar disk diffusion technique.

Experimental findings from ChEMBL document CHEMBL2424637, “Nucleophilic substitution reactions of 1,4-naphthoquinone and biologic properties of novel S-, S,S-, N-, and N,S-substituted 1,4-naphthoquinone derivatives” (2013) are described below.

Values after ≈ are worked out from the molar mass of the structure shown. Active and inactive are the calls of the source. The rule behind the calls is not given here.

As a reminder, the MIC is the lowest concentration that inhibits growth of the organism. Turning to `O=C1C(Sc2c(Cl)c(Cl)c(Cl)c(Cl)c2Cl)=C(N2CCSCC2)C(=O)c2ccccc21`, the “diameter of the inhibition zone (DIZ)” value in the test on Mycobacterium [1], in the test on Staphylococcus aureus [2], in the test on Escherichia coli [5], in the test on Yamadazyma tenuis [6], with Yamadazyma tenuis [8] and with Staphylococcus aureus [9] was 0 mm each time. Besides, the “diameter of the inhibition zone (DIZ)” value in the test on Mycobacterium [10], in the test with Aspergillus niger [13], in the test with Escherichia coli [14] and in the test with Aspergillus niger [15] was 0 mm each time. Besides, the MIC entry with Aspergillus niger [3], with Escherichia coli [7], in the test on Staphylococcus aureus [11] and with Mycobacterium [12] was “inactive” throughout. In the test with Yamadazyma tenuis [4], this compound gave a minimum inhibitory concentration (MIC) of 125 µg/mL (≈ 232 µM).

With `CCCCOC(=O)CCSC1=C(Sc2ccc(O)cc2)C(=O)c2ccccc2C1=O`, the “diameter of the inhibition zone (DIZ)” value in the test with Mycobacterium [1], with Staphylococcus aureus [2], with Escherichia coli [5], with Yamadazyma tenuis [6], with Yamadazyma tenuis [8] and in the test on Staphylococcus aureus [9] was 0 mm throughout. Also, the “diameter of the inhibition zone (DIZ)” value in the test on Mycobacterium [10] stood at 6 mm; with Aspergillus niger [13], 0 mm; with Escherichia coli [14], 0 mm; in the test with Aspergillus niger [15], 0 mm. The MIC entry with Aspergillus niger [3], with Yamadazyma tenuis [4], with Escherichia coli [7], with Staphylococcus aureus [11] and with Mycobacterium [12] was “inactive” throughout.

Consider `COc1ccc(CSC2=C(SCc3ccc(OC)cc3)C(=O)c3ccccc3C2=O)cc1`, for which the “diameter of the inhibition zone (DIZ)” value is 0 mm with Mycobacterium [1]; 0 mm in the test on Staphylococcus aureus [2]; 0 mm in the test on Escherichia coli [5]; 7.4 mm with Yamadazyma tenuis [6]; 11.7 mm with Yamadazyma tenuis [8]; 0 mm with Staphylococcus aureus [9]. The “diameter of the inhibition zone (DIZ)” value was 7 mm in the test with Mycobacterium [10], 7.4 mm in the test with Aspergillus niger [13], 0 mm in the test with Escherichia coli [14] and 0 mm with Aspergillus niger [15]. Further, the minimum inhibitory concentration (MIC) with Aspergillus niger [3] was 250 µg/mL (≈ 540 µM); against Yamadazyma tenuis [4], 62.5 µg/mL (≈ 135 µM). Moreover, the MIC result in the test on Escherichia coli [7], in the test on Staphylococcus aureus [11] and in the test with Mycobacterium [12] was “inactive” each time.

For the compound `O=C1C(Sc2cc(Cl)ccc2Cl)=C(Sc2cc(Cl)ccc2Cl)C(=O)c2ccccc21`, the “diameter of the inhibition zone (DIZ)” value in the test on Mycobacterium [1] amounted to 0 mm; in the test on Staphylococcus aureus [2], 0 mm; in the test with Escherichia coli [5], 0 mm; with Yamadazyma tenuis [6], 0 mm; with Yamadazyma tenuis [8] it was 7 mm; in the test with Staphylococcus aureus [9], 0 mm. Also, the “diameter of the inhibition zone (DIZ)” value in the test on Mycobacterium [10], in the test on Aspergillus niger [13], with Escherichia coli [14] and in the test with Aspergillus niger [15] was 0 mm each time. In addition, the MIC entry with Aspergillus niger [3], in the test with Escherichia coli [7], in the test with Staphylococcus aureus [11] and in the test with Mycobacterium [12] was “inactive” each time. The compound also had an MIC in the test with Yamadazyma tenuis [4] of 500 µg/mL (≈ 976 µM).

As for `COC(=O)CCSC1=C(Sc2c(Cl)c(Cl)c(Cl)c(Cl)c2Cl)C(=O)c2ccccc2C1=O`, the “diameter of the inhibition zone (DIZ)” value worked out at 6 mm with Mycobacterium [1]; 0 mm in the test on Staphylococcus aureus [2]; 0 mm in the test on Escherichia coli [5]; 0 mm with Yamadazyma tenuis [6]; 0 mm in the test with Yamadazyma tenuis [8]; 0 mm with Staphylococcus aureus [9]. Further, the “diameter of the inhibition zone (DIZ)” value in the test on Mycobacterium [10] was 10.7 mm; in the test with Aspergillus niger [13], 0 mm; with Escherichia coli [14], 0 mm; with Aspergillus niger [15], 0 mm. Besides, the MIC entry in the test with Aspergillus niger [3] and in the test on Escherichia coli [7] was “inactive” throughout. The minimal inhibitory concentration (MIC) against Yamadazyma tenuis [4] was found to be 62.5 µg/mL (≈ 112 µM); against Staphylococcus aureus [11], 250 µg/mL (≈ 449 µM); in the test with Mycobacterium [12] it was 15.6 µg/mL (≈ 28 µM).

As for `CSc1ccc(SC2=C(Sc3ccc(SC)cc3)C(=O)c3ccccc3C2=O)cc1`, the “diameter of the inhibition zone (DIZ)” value in the test on Mycobacterium [1] is reported as 8.7 mm; in the test with Staphylococcus aureus [2], 8.7 mm; with Escherichia coli [5], 0 mm; in the test on Yamadazyma tenuis [6], 0 mm; with Yamadazyma tenuis [8], 0 mm; with Staphylococcus aureus [9] it was 0 mm. For the same compound, the “diameter of the inhibition zone (DIZ)” value in the test with Mycobacterium [10] was determined as 11 mm; in the test with Aspergillus niger [13] it was 6 mm; in the test with Escherichia coli [14], 0 mm; with Aspergillus niger [15], 0 mm. For the same compound, the results for the MIC against Aspergillus niger [3], against Staphylococcus aureus [11] and with Mycobacterium [12] were 500 µg/mL (≈ 1070 µM), 250 µg/mL (≈ 536 µM) and 125 µg/mL (≈ 268 µM), respectively. Moreover, the MIC entry in the test with Yamadazyma tenuis [4] and with Escherichia coli [7] was “inactive” in each case.

For the compound `O=C1C(Cl)=C(N2CCN(CCO)CC2)C(=O)c2ccccc21`, the “diameter of the inhibition zone (DIZ)” value in the test with Mycobacterium [1] came to 16 mm; in the test on Staphylococcus aureus [2], 20.7 mm; in the test on Escherichia coli [5] it was 6 mm; in the test with Yamadazyma tenuis [6] it was 0 mm; with Yamadazyma tenuis [8], 0 mm; with Staphylococcus aureus [9], 11.4 mm. Moreover, the “diameter of the inhibition zone (DIZ)” value came to 28.7 mm in the test with Mycobacterium [10], 0 mm with Aspergillus niger [13], 8 mm in the test with Escherichia coli [14] and 0 mm in the test with Aspergillus niger [15]. The minimal inhibitory concentration (MIC) with Aspergillus niger [3] came to 125 µg/mL (≈ 390 µM); against Yamadazyma tenuis [4], 125 µg/mL (≈ 390 µM); against Escherichia coli [7], 500 µg/mL (≈ 1560 µM); in the test with Staphylococcus aureus [11] it was 62.5 µg/mL (≈ 195 µM); in the test on Mycobacterium [12] it was 31.2 µg/mL (≈ 97.3 µM).

For the compound `O=C1C(Sc2c(Cl)c(Cl)c(Cl)c(Cl)c2Cl)=C(N2CCCCC2)C(=O)c2ccccc21`, the “diameter of the inhibition zone (DIZ)” value in the test with Mycobacterium [1], with Staphylococcus aureus [2], in the test on Escherichia coli [5], in the test on Yamadazyma tenuis [6], in the test on Yamadazyma tenuis [8] and with Staphylococcus aureus [9] was 0 mm each time. The “diameter of the inhibition zone (DIZ)” value in the test on Mycobacterium [10], with Aspergillus niger [13], in the test on Escherichia coli [14] and in the test on Aspergillus niger [15] was 0 mm in each case. In addition, the MIC entry in the test on Aspergillus niger [3], with Yamadazyma tenuis [4], in the test with Escherichia coli [7], in the test with Staphylococcus aureus [11] and in the test on Mycobacterium [12] was “inactive” throughout.
